Measured values: patent publication US20050049197A1, “Induction of immune response against desired determinants” (Epimmune Inc., priority 1993, published 2005)
Non-standard residues stand in square brackets, D forms with d. Residues, ends and D or L forms follow the SMILES beside them. Cha = N[C@@H](CC1CCCCC1)C(=O)O

Columns and labels:
DQ3.1 = system: DQ3.1; design: species or system human; settings: read-out: Binding Activity DQ3.1, IC50
DR2w2b = system: DR2w2b; design: species or system human; settings: read-out: Binding Activity DR2wB2, IC50
DR5 = system: DR5; design: species or system human; settings: read-out: Binding Activity DR5, IC50
[1] = system: PBMC from normal individuals; test: In vitro T cell proliferative responses of human PBMC ([3H]thymidine incorporation); assay type: cell-based; settings: for AVERAGE S.I. / AVERAGE ΔMAX CPM: average of 5 donors; for X144 (Δmax cpm) / X144 S.I.: donor X144; for X162 (Δmax cpm) / X162 S.I.: donor X162; for X349 (Δmax cpm) / X349 S.I.: donor X349; for X372 (Δmax cpm) / X372 S.I.: donor X372; for X460 (Δmax cpm) / X460 S.I.: donor X460
P. yoelii sporozoites = test: Inhibition of liver stage development assay (ILSDA), mouse hepatocytes infected with P. yoelii sporozoites; assay type: cell-based; settings: sera of immunized mice, dilution not stated
Method: In certain experiments, peptides were emulsified in complete Freund's adjuvant (CFA) and injected subcutaneously (S.C.) at the base of the tail in 100 μl volume containing 100 μg of peptide. Mice were boosted with 100 μg of peptide emulsified in 100 μl of incomplete Freund's adjuvant (IFA) 1 month later. Mice were bled just prior to boosting, and 2 weeks after boosting.
All cell culture reagents were obtained from quality Biological, Gaithersburg, Md. The slides were incubated overnight at 37° C. in a 5% CO2/95% air environment. The medium was changed the following day and fresh medium containing dexamethasone (7×10^−5) was added to the cultures.
The 17XNL (nonlethal) strain of P. yoelii or the NF54 strain of P. falciparum were used for murine and human hepatocyte in vitro infections, respectively.
Briefly, 25 μl of the serum samples, diluted to 2× their final concentration, were added to triplicate chamber-slide wells. P. yoeilli or P. falciparum sporozoites, 75,000/well, were then added in a volume of 25 μl to the mouse or human hepatocyte cultures respectively. The cultures were incubated for 3 h, then washed extensively with fresh medium to remove unattached sporozoites. The infected hepatocytes were then incubated for a further 2 (P. yoelii) or 5 days (P. falciparum) with the medium being changed each day of culture. The slides were fixed and immunostained with either a P. yoelii- or P. falciparum-specific monoclonal antibody. Schizonts were counted from the triplicate cultures and the percent inhibition determined as follows: control−test/control×100. Sera from mice injected with CFA (first dose) and IFA (second and third doses) served as the negative controls.

DRw53 = DRw53 (Homo sapiens, UniProt P01903+P13762); test: biochemical; assay type: binding
DRw53, sequence (P01903 26-254): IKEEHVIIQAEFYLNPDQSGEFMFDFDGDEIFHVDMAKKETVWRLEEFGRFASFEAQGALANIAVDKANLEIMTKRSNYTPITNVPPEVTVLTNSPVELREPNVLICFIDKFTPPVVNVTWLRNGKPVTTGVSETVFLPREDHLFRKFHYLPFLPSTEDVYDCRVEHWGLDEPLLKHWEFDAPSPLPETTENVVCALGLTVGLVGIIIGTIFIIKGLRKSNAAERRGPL
DRw53, sequence (P13762 30-266): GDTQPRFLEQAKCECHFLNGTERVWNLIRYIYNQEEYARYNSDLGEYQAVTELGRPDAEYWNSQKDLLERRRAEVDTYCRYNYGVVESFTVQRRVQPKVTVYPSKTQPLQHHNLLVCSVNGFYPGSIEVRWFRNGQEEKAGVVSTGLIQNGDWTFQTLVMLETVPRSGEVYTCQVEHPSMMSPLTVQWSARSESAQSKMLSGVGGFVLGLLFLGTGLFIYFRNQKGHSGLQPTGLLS

DR3 = system: DR3; design: species or system human; settings: read-out: Binding Activity DR3, IC50

| Compound | IC50 (DQ3.1) [µM] | IC50 (DR2w2b) [nM] | AVERAGE S.I. ([1]; 2nd Stimulation) | AVERAGE ΔMAX CPM ([1]; 2nd Stimulation) [cpm] | X144 (Δmax cpm) ([1]; 2nd Stimulation) [cpm] | X144 S.I. ([1]; 2nd Stimulation) | X162 (Δmax cpm) ([1]; 2nd Stimulation) [cpm] | X162 S.I. ([1]; 2nd Stimulation) | X349 (Δmax cpm) ([1]; 2nd Stimulation) [cpm] | X349 S.I. ([1]; 2nd Stimulation) | X372 (Δmax cpm) ([1]; 2nd Stimulation) [cpm] | X372 S.I. ([1]; 2nd Stimulation) | X460 (Δmax cpm) ([1]; 2nd Stimulation) [cpm] | X460 S.I. ([1]; 2nd Stimulation) | AVERAGE S.I. ([1]; 3rd Stimulation) | AVERAGE ΔMAX CPM ([1]; 3rd Stimulation) [cpm] | X144 (Δmax cpm) ([1]; 3rd Stimulation) [cpm] | X144 S.I. ([1]; 3rd Stimulation) | X162 (Δmax cpm) ([1]; 3rd Stimulation) [cpm] | X162 S.I. ([1]; 3rd Stimulation) | also measured |
| --- | --- | --- | --- | --- | --- | --- | --- | --- | --- | --- | --- | --- | --- | --- | --- | --- | --- | --- | --- | --- | --- |
| CC(C)C[C@H](NC(=O)[C@@H](NC(=O)[C@H](C)NC(=O)[C@H](C)NC(=O)[C@H](C)NC(=O)[C@@H](NC(=O)[C@H](CC1CCCCC1)NC(=O)[C@H](CCCCN)NC(=O)[C@@H](C)N)C(C)C)[C@@H](C)O)C(=O)N[C@@H](CCCCN)C(=O)N[C@@H](C)C(=O)N[C@@H](C)C(=O)N[C@H](C)C(N)=O [965.16] | > 10 | 6.1 | 1.3 | 1843 | 4388 | 1.2 | 4090 | 2.1 | 0 | 1 | 736 | 1 | 0 | 1 | 1.5 | 5955 | 5220 | 1.5 | 4762 | 1.9 | IC50 (DR5): 16.7 nM; X349 (Δmax cpm) ([1]; 3rd Stimulation): 9316 cpm; X349 S.I. ([1]; 3rd Stimulation): 1.6; X372 (Δmax cpm) ([1]; 3rd Stimulation): 10439 cpm; X372 S.I. ([1]; 3rd Stimulation): 1.7; X460 (Δmax cpm) ([1]; 3rd Stimulation): 37 cpm; X460 S.I. ([1]; 3rd Stimulation): 1 |
| CC(C)C[C@H](NC(=O)[C@@H](NC(=O)[C@H](Cc1c[nH]c2ccccc12)NC(=O)[C@H](C)NC(=O)[C@H](C)NC(=O)[C@@H](NC(=O)[C@H](CC1CCCCC1)NC(=O)[C@H](CCCCN)NC(=O)[C@@H](C)N)C(C)C)[C@@H](C)O)C(=O)N[C@@H](CCCCN)C(=O)N[C@@H](C)C(=O)N[C@H](C)C(=O)N[C@@H](CCC(N)=O)C(=O)NCC(=O)N1CCC[C@H]1C(=O)NCC(=O)N[C@@H](C)C(=O)N1CCC[C@H]1C(=O)N[C@@H](CCC(N)=O)C(=O)NCC(=O)N1CCC[C@H]1C(=O)NCC(=O)N[C@@H](C)C(=O)N1CCC[C@H]1C(=O)N[C@@H](CCC(N)=O)C(=O)NCC(=O)N1CCC[C@H]1C(=O)NCC(=O)N[C@@H](C)C(=O)N1CCC[C@H]1C(=O)N[C@@H](CCC(N)=O)C(=O)NCC(=O)N1CCC[C@H]1C(=O)NCC(=O)N[C@@H](C)C(=O)N1CCC[C@H]1C(=O)NCC(=O)NCC(=O)N[C@@H](CO)C(=O)O [PADRE ®-PyB, aKXVAAWTLKAa(QGPGAP)4GGS] (H-[dA]K[Cha]VAAWTLKA[dA]QGPGAPQGPGAPQGPGAPQGPGAPGGS-OH; N-terminus and C-terminus assumed) |  |  |  |  |  |  |  |  |  |  |  |  |  |  |  |  |  |  |  |  | inhibition of P. yoelii sporozoite invasion and development in murine hepatocytes (P. yoelii sporozoites): approximately 90% |
| CC(C)C[C@H](NC(=O)[C@@H](NC(=O)[C@H](Cc1c[nH]c2ccccc12)NC(=O)[C@H](C)NC(=O)[C@H](C)NC(=O)[C@@H](NC(=O)[C@H](CC1CCCCC1)NC(=O)[C@H](CCCCN)NC(=O)[C@H](C)N)C(C)C)[C@@H](C)O)C(=O)N[C@@H](CCCCN)C(=O)N[C@@H](C)C(=O)N[C@@H](C)C(=O)N[C@@H](C)C(N)=O [965.17] | > 10 | 5.9 | 2.4 | 12738 | 17391 | 1.7 | 6323 | 2 | 26512 | 5.6 | 8471 | 1.3 | 4994 | 1.3 | 3.5 | 25399 | 32665 | 4.1 | 28065 | 4.1 | IC50 (DRw53): 170 nM; X349 (Δmax cpm) ([1]; 3rd Stimulation): 31983 cpm; X349 S.I. ([1]; 3rd Stimulation): 4; X372 (Δmax cpm) ([1]; 3rd Stimulation): 30661 cpm; X372 S.I. ([1]; 3rd Stimulation): 3.2; X460 (Δmax cpm) ([1]; 3rd Stimulation): 3619 cpm; X460 S.I. ([1]; 3rd Stimulation): 2.2 |
| CC(C)C[C@H](NC(=O)[C@@H](NC(=O)[C@H](Cc1ccc(O)cc1)NC(=O)[C@H](C)NC(=O)[C@H](C)NC(=O)[C@@H](NC(=O)[C@H](CC1CCCCC1)NC(=O)[C@H](CCCCN)NC(=O)[C@@H](C)N)C(C)C)[C@@H](C)O)C(=O)N[C@@H](CCCCN)C(=O)N[C@@H](C)C(=O)N[C@@H](C)C(=O)N[C@H](C)C(N)=O [965.09] | > 10 | 7.4 | 1.9 | 12059 | 13693 | 1.8 | 10710 | 1.1 | 18079 | 3.8 | 17813 | 1.6 | 0 | 1 | 4.1 | 22599 | 14087 | 2.6 | 35635 | 5.2 | IC50 (DR3): 250 nM; IC50 (DRw53): 86.4 nM; IC50 (DR5): 5.4 nM; X349 (Δmax cpm) ([1]; 3rd Stimulation): 31811 cpm; X349 S.I. ([1]; 3rd Stimulation): 5.5; X372 (Δmax cpm) ([1]; 3rd Stimulation): 29159 cpm; X372 S.I. ([1]; 3rd Stimulation): 4.4; X460 (Δmax cpm) ([1]; 3rd Stimulation): 2301 cpm; X460 S.I. ([1]; 3rd Stimulation): 2.9 |
| CC(C)C[C@H](NC(=O)[C@@H](NC(=O)[C@H](Cc1c[nH]cn1)NC(=O)[C@H](C)NC(=O)[C@H](C)NC(=O)[C@@H](NC(=O)[C@H](CC1CCCCC1)NC(=O)[C@H](CCCCN)NC(=O)[C@@H](C)N)C(C)C)[C@@H](C)O)C(=O)N[C@@H](CCCCN)C(=O)N[C@@H](C)C(=O)N[C@@H](C)C(=O)N[C@H](C)C(N)=O [965.15] | > 10 | 5.4 | 1.8 | 7920 | 7179 | 1.4 | 8461 | 3.4 | 10848 | 1.8 | 10011 | 1.3 | 3100 | 1.2 | 2.5 | 15462 | 13055 | 2.4 | 12309 | 1.6 | IC50 (DR3): 1390 nM; IC50 (DRw53): 79.2 nM; IC50 (DR5): 29.9 nM; X349 (Δmax cpm) ([1]; 3rd Stimulation): 20653 cpm; X349 S.I. ([1]; 3rd Stimulation): 2.4; X372 (Δmax cpm) ([1]; 3rd Stimulation): 30810 cpm; X372 S.I. ([1]; 3rd Stimulation): 4.7; X460 (Δmax cpm) ([1]; 3rd Stimulation): 486 cpm; X460 S.I. ([1]; 3rd Stimulation): 1.2 |
| CC(C)C[C@H](NC(=O)[C@@H](NC(=O)[C@H](CC(N)=O)NC(=O)[C@H](C)NC(=O)[C@H](C)NC(=O)[C@@H](NC(=O)[C@H](CC1CCCCC1)NC(=O)[C@H](CCCCN)NC(=O)[C@@H](C)N)C(C)C)[C@@H](C)O)C(=O)N[C@@H](CCCCN)C(=O)N[C@@H](C)C(=O)N[C@@H](C)C(=O)N[C@H](C)C(N)=O [965.08] | > 10 | 3.8 | 1.7 | 11208 | 8440 | 1.3 | 9234 | 2.6 | 9065 | 1.8 | 23017 | 1.6 | 6286 | 1.4 | 2 | 12070 | 3559 | 1.4 | 14622 | 2.3 | IC50 (DR3): 250 nM; IC50 (DR5): 8 nM; X349 (Δmax cpm) ([1]; 3rd Stimulation): 31639 cpm; X349 S.I. ([1]; 3rd Stimulation): 2.8; X372 (Δmax cpm) ([1]; 3rd Stimulation): 8710 cpm; X372 S.I. ([1]; 3rd Stimulation): 1.9; X460 (Δmax cpm) ([1]; 3rd Stimulation): 1820 cpm; X460 S.I. ([1]; 3rd Stimulation): 1.6 |
